Results as given in patent publication US10550124B2, “Atropisomerism for increased kinase inhibitor selectivity” (SAN DIEGO STATE UNIVERSITY RESEARCH FOUNDATION, priority 2015, dated 2020).

How the values were obtained:
Type in all cases: biochemical
[1] = target: Abl (Homo sapiens, UniProt P00519); assay: Z′-LYTE kinase inhibition assay, Abl; conditions: for % inhibition: average of 2 runs
Description: (§1) All samples were sent out to Life Technologies to obtain kinase inhibition data. A brief description of the assays and analyses are included below.
(§2) Assay Theory (SelectScreen® Kinase Profiling Services (Life Technologies, Madison, Wis. USA). The Z′-LYTE® biochemical assay employs a fluorescence-based, coupled-enzyme format and is based on the differential sensitivity of phosphorylated and non-phosphorylated peptides to proteolytic cleavage. The peptide substrate is labeled with two fluorophores one at each end—that make up a FRET pair.
(§3) In the primary reaction, the kinase transfers the gamma-phosphate of ATP to a single tyrosine, serine or threonine residue in a synthetic FRET-peptide. In the secondary reaction, a site-specific protease recognizes and cleaves non-phosphorylated FRET-peptides.
(§4) Phosphorylation of FRET-peptides suppresses cleavage by the Development Reagent. Cleavage disrupts FRET between the donor (i.e., coumarin) and acceptor (i.e., fluorescein) fluorophores on the FRET-peptide, whereas uncleaved, phosphorylated FRET-peptides maintain FRET. A ratiometric method, which calculates the ratio (the Emission Ratio) of donor emission to acceptor emission after excitation of the donor fluorophore at 400 nm, is used to quantitate reaction progress, as shown in the equation below: […]
(§5) A significant benefit of this ratiometric method for quantitating reaction progress is the elimination of well-to-well variations in FRET-peptide concentration and signal intensities. As a result, the assay yields very high Z′-factor values (>0.7) at a low percent phosphorylation. Both cleaved and uncleaved FRET-peptides contribute to the fluorescence signals and therefore to the Emission Ratio. The extent of phosphorylation of the FRET-peptide can be calculated from the Emission Ratio. The Emission Ratio will remain low if the FRET-peptide is phosphorylated (i.e., no kinase inhibition) and will he high if the FRET-peptide is non-phosphorylated (i.e., kinase inhibition).

[2] = target: pdgfr-a (Homo sapiens, UniProt P16234); assay: Z′-LYTE kinase inhibition assay, pdgfr-a; conditions: for % inhibition: average of 2 runs
Description: as §1, §2, §3, §4, §5

[3] = tested on: panel of 18 tyrosine kinases; assay: Kinase inhibitor profiling across a panel of tyrosine kinases (selectivity); conditions: for S(40%): number of kinases inhibited greater than 40% divided by number of kinases tested (including Src)
Protocol: In order to probe the effect of atropisomeric conformation on kinase selectivity we subjected 1f, 2e, and 2f to kinase inhibitor profiling across a panel of tyrosine kinases at 1000 nM and 5000 nM (data for 2e shown in Scheme 4 below).
To analyze each analog's selectivity across the panel we turned to selectivity scores (Davis et al., Nat. Biotechnol. 2011, 29, 1046-51), simply the number of kinases inhibited above a certain threshold divided by the number of kinases evaluated. […] For example at 1000 nM 2e-(R) yielded an S(40%) of 0.11 while 2e-(S) gave an S(40%) of 0.16. […] Differences in selectivity between 2e-(R) and 2e-(S) at 5000 nM (4.5 times the IC50 of 2e-(S) toward Src) and for 5 at 1000 nM (6.25 times the IC50 of 5 toward Src) can be viewed graphically across tyrosine kinases (FIG. 3). Importantly, similar trends were also observed across each of the atropisomeric series tested.
as §1, §2, §3, §4, §5

[4] = target: Hck (Homo sapiens, UniProt P08631); assay: Z′-LYTE kinase inhibition assay, Hck; conditions: for % inhibition: average of 2 runs
Sequence of Hck (P08631 whole entry): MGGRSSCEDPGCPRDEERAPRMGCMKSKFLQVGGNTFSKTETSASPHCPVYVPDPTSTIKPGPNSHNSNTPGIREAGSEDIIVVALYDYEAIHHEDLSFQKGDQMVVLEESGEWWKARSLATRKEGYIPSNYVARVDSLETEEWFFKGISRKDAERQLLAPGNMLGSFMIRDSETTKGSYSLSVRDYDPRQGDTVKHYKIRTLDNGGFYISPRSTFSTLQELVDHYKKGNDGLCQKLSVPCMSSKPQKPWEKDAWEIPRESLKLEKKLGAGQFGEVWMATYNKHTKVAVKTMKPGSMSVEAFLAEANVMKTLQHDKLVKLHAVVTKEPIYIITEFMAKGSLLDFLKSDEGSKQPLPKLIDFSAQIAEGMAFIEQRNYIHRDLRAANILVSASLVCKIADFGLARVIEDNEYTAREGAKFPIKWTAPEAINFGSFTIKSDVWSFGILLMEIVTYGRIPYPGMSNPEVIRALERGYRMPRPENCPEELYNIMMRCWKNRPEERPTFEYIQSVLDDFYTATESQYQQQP
Description: as §1, §2, §3, §4, §5

[5] = target: CSK (Homo sapiens, UniProt P41240); assay: Z′-LYTE kinase inhibition assay, CSK; conditions: for % inhibition: average of 2 runs
Sequence of CSK (P41240 whole entry): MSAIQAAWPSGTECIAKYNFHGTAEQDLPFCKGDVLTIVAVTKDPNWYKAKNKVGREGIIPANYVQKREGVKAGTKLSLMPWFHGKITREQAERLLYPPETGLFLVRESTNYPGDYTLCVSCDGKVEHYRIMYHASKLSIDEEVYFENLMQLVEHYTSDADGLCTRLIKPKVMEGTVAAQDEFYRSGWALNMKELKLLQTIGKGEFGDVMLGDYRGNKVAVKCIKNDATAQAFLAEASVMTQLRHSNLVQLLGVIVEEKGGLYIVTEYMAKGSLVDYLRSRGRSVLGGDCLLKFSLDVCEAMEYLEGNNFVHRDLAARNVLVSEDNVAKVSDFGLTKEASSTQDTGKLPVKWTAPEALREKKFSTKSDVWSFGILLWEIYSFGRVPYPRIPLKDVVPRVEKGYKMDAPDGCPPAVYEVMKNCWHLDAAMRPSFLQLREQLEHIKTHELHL
Description: as §1, §2, §3, §4, §5

[6] = target: Kit (Homo sapiens, UniProt P10721); assay: Z′-LYTE kinase inhibition assay, Kit; conditions: for % inhibition: average of 2 runs
Sequence of Kit (P10721 26-976): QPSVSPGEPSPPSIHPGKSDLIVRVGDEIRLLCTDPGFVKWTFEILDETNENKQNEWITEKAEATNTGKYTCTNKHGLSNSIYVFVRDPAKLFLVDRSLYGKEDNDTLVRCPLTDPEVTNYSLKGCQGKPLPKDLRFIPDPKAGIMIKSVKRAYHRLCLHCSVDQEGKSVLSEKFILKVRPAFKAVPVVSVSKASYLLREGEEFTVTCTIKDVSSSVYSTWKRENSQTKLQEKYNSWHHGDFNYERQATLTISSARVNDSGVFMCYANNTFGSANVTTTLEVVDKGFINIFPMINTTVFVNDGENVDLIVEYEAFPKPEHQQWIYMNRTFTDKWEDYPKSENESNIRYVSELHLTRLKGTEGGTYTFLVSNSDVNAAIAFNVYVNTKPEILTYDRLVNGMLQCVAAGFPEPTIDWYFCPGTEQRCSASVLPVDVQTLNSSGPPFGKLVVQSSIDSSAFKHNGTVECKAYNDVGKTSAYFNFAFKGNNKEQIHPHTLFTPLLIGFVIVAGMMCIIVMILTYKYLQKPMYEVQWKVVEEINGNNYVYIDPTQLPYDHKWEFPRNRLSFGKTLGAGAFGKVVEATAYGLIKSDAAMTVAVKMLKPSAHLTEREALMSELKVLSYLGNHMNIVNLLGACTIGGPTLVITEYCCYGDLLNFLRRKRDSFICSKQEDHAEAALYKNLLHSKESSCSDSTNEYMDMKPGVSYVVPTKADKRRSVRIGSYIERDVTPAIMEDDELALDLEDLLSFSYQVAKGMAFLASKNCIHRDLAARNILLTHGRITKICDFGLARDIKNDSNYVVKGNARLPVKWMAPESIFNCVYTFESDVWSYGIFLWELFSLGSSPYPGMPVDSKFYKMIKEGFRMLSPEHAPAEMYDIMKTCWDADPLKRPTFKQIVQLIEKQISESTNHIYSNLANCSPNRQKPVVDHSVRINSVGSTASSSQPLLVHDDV
Description: as §1, §2, §3, §4, §5

[7] = target: EGFR (Homo sapiens, UniProt P00533); assay: Z′-LYTE kinase inhibition assay, EGFR; conditions: for % inhibition: average of 2 runs
Description: as §1, §2, §3, §4, §5

[8] = target: Alk (Homo sapiens, UniProt Q9UM73); assay: Z′-LYTE kinase inhibition assay, Alk; conditions: for % inhibition: average of 2 runs
Description: as §1, §2, §3, §4, §5

[9] = target: Ret (Homo sapiens, UniProt P07949); assay: Z′-LYTE kinase inhibition assay, Ret; conditions: for % inhibition: average of 2 runs
Description: as §1, §2, §3, §4, §5

[10] = target: Fgr (Homo sapiens, UniProt P09769); assay: Z′-LYTE kinase inhibition assay, Fgr; conditions: for % inhibition: average of 2 runs
Sequence of Fgr (P09769 whole entry): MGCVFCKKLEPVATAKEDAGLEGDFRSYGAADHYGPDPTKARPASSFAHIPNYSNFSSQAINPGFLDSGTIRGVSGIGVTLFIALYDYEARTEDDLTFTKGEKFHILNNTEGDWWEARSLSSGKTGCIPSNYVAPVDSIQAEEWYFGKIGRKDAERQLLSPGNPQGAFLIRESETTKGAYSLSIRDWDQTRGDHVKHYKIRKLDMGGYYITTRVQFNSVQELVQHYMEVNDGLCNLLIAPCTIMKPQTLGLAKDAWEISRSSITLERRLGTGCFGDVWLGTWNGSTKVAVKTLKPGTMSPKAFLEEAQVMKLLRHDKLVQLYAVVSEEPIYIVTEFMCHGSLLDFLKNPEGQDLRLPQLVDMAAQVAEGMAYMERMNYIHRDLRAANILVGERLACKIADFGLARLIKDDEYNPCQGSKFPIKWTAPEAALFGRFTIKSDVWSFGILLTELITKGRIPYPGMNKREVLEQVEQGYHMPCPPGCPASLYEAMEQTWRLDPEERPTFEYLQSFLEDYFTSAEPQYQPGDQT
Description: as §1, §2, §3, §4, §5

[11] = target: Yes (Homo sapiens, UniProt P07947); assay: Z′-LYTE kinase inhibition assay, Yes; conditions: for % inhibition: average of 2 runs
Sequence of Yes (P07947 whole entry): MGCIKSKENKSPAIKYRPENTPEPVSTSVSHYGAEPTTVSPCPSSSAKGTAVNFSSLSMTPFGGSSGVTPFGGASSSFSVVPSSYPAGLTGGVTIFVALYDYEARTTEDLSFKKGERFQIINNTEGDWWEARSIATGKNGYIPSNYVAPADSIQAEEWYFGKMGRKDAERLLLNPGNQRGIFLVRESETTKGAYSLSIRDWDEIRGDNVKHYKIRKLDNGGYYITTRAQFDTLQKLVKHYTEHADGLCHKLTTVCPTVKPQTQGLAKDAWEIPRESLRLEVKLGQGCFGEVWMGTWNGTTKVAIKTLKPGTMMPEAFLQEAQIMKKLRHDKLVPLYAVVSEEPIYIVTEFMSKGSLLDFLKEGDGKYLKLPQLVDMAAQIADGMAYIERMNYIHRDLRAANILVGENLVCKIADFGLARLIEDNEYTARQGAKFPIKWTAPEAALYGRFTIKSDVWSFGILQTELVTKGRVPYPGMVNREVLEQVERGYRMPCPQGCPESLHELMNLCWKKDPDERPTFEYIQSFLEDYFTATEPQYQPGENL
Description: as §1, §2, §3, §4, §5

[12] = target: Src kinase (Homo sapiens, UniProt P12931); assay: Z′-LYTE kinase inhibition assay, Src
Description: Based on the observed stereochemical stabilities, we chose 1f, 2e, and 2f for further study and obtained inhibition data against Src kinase from Life Technologies' Z′-LYTE™ kinase assay (Scheme 3).
as §1, §2, §3, §4, §5

[13] = target: BTK (Homo sapiens, UniProt Q06187); assay: Z′-LYTE kinase inhibition assay, BTK; conditions: for % inhibition: average of 2 runs
Description: as §1, §2, §3, §4, §5

[14] = target: Fyn (Homo sapiens, UniProt P06241); assay: Z′-LYTE kinase inhibition assay, Fyn; conditions: for % inhibition: average of 2 runs
Description: as §1, §2, §3, §4, §5

[15] = target: Lck (Homo sapiens, UniProt P06239); assay: Z′-LYTE kinase inhibition assay, Lck; conditions: for % inhibition: average of 2 runs
Sequence of Lck (P06239 whole entry): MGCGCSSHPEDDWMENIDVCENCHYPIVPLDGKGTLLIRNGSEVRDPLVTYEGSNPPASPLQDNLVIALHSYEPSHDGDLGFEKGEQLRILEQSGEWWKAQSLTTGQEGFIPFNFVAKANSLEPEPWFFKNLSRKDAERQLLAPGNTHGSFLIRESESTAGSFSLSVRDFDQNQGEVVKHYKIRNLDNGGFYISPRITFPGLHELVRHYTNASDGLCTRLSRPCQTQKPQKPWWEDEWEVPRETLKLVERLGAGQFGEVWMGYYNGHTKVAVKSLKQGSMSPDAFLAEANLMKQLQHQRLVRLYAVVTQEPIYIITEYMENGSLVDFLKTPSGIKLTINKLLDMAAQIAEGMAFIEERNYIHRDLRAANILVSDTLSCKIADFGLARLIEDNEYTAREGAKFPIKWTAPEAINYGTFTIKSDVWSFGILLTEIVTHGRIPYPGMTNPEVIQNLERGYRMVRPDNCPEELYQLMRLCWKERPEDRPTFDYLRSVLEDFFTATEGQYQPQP
Description: as §1, §2, §3, §4, §5

[16] = target: Lyn (Homo sapiens, UniProt P07948); assay: Z′-LYTE kinase inhibition assay, Lyn; conditions: for % inhibition: average of 2 runs
Sequence of Lyn (P07948 whole entry): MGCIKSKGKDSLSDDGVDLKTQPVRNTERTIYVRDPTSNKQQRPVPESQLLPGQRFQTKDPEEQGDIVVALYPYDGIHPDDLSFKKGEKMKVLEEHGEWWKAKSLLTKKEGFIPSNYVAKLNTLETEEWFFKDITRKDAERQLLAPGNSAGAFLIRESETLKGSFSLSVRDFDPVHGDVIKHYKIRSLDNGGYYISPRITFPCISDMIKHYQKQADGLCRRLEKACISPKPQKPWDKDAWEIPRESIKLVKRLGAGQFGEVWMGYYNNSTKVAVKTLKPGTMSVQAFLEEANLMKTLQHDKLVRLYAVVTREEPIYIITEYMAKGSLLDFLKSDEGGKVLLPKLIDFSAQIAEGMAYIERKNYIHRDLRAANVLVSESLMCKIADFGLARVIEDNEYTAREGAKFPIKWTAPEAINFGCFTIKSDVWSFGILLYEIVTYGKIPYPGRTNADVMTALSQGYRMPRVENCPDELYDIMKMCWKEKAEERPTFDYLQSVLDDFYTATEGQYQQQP
Description: as §1, §2, §3, §4, §5

[17] = target: pdgfr-b (Homo sapiens, UniProt P09619); assay: Z′-LYTE kinase inhibition assay, pdgfr-b; conditions: for % inhibition: average of 2 runs
Description: as §1, §2, §3, §4, §5

[18] = target: Her-2 (Homo sapiens, UniProt P04626); assay: Z′-LYTE kinase inhibition assay, Her-2; conditions: average of 2 runs
Description: as §1, §2, §3, §4, §5

[19] = target: Blk (Homo sapiens, UniProt P51451); assay: Z′-LYTE kinase inhibition assay, Blk; conditions: for % inhibition: average of 2 runs
Sequence of Blk (P51451 whole entry): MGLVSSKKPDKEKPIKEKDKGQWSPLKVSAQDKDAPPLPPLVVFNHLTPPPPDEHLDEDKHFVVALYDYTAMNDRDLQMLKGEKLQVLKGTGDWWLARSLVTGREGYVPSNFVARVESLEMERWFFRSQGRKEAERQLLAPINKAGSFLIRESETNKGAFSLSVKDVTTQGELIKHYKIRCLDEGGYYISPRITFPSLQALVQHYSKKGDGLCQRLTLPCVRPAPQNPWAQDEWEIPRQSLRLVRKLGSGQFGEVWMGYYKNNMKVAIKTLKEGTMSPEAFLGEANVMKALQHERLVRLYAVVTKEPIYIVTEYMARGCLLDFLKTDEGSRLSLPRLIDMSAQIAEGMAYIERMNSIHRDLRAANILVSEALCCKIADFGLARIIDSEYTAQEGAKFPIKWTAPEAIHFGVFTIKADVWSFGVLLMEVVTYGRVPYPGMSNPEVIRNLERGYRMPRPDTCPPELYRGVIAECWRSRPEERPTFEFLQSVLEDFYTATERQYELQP
Description: as §1, §2, §3, §4, §5

[20] = % inhibition 2e-(S)/% inhibition 2e-(R) at 5000 nM

In the case of `COc1ccc(Cl)c(-c2c(Cl)n(C(C)(C)C)c3ncnc(N)c23)c1` (single isomer, unassigned) [2e-(S), 7-(tert-butyl)-6-chloro-5-(2-chloro-5-methoxyphenyl)-7H-pyrrolo[2,3d]pyrimidin-4-amine], the “IC50 of Kinase/IC50 of Yes” value ([1]; Abl relative to Yes) is reported as 1.96, the “% inhibition” value ([1]; Abl, 1000 nM, 1 µM) is reported as 36% and the “% inhibition” value ([1]; Abl, 5000 nM) is reported as 67%. For the same compound, the “% inhibition” value ([1]; Abl, 5000 nM, 5 µM) was 67%, the “SIR (5000 nM)” value ([1]; Abl, % inhibition 2e-(S)/% inhibition 2e-(R) at 5000 nM) was 2.57 and the IC50 ([1]; Abl, error is standard deviation) was 1430 nM. The “% inhibition” value ([2]; 1000 nM) was 3%, the “% inhibition” value ([2]; 5000 nM, 5 µM) was 13% and the “SIR (5000 nM)” value [2, 20] was 1.63. The “S(40%)” value ([3]; 1000 nM) was 0.16, the “S(40%)” value ([3]; 5000 nM) was 0.61 and the “increase of 5's inherent selectivity” value ([3]; less potent towards Ret) was ~8 fold. The “% inhibition” value ([4]; 1000 nM, 1 µM) was 32%, the “% inhibition” value ([4]; 5000 nM, 5 µM) was 50% and the “SIR (5000 nM)” value [4, 20] was 1.25. For the same compound, the “% inhibition” value ([5]; 1000 nM, 1 µM) was 19%, the “% inhibition” value ([5]; 5000 nM, 5 µM) was 45% and the “SIR (5000 nM)” value [5, 20] was 1.28. The “% inhibition” value ([6]; 1000 nM, 1 µM) was 18%, the “% inhibition” value ([6]; 5000 nM, 5 µM) was 36% and the “SIR (5000 nM)” value [6, 20] was 1.38. The “IC50 of Kinase/IC50 of Yes” value ([7]; EGFR relative to Yes) was >10.0, the “% inhibition” value ([7]; EGFR, 1000 nM, 1 µM) was 10% and the “% inhibition” value ([7]; EGFR, 5000 nM, 5 µM) was 21%. For the same compound, the IC50 ([7]; EGFR, error is standard deviation) was > 10000 nM, the “% inhibition” value ([8]; 1000 nM, 1 µM) was 5% and the “% inhibition” value ([8]; 5000 nM, 5 µM) was 7%. The “SIR (5000 nM)” value [8, 20] was 0.38, the “IC50 of Kinase/IC50 of Yes” value ([9]; Ret relative to Yes) was 10.53 and the “% inhibition” value ([9]; Ret, 1000 nM, 1 µM) was 14%. For the same compound, the “% inhibition” value ([9]; Ret, 5000 nM) was 32%, the “% inhibition” value ([9]; Ret, 5000 nM, 5 µM) was 32% and the “SIR (5000 nM)” value ([9]; Ret, % inhibition 2e-(S)/% inhibition 2e-(R) at 5000 nM) was 0.44. The IC50 ([9]; Ret, error is standard deviation) was 7660 nM, the “% inhibition” value ([10]; 1000 nM, 1 µM) was 58% and the “% inhibition” value ([10]; 5000 nM, 5 µM) was 81%. For the same compound, the “SIR (5000 nM)” value [10, 20] was 1.05, the “IC50 of Kinase/IC50 of Yes” value ([11]; Yes relative to Yes) was 1 and the “% inhibition” value ([11]; Yes, 1000 nM) was 53%. The “% inhibition” value ([11]; Yes, 5000 nM, 5 µM) was 77%, the “SIR (5000 nM)” value ([11]; Yes, % inhibition 2e-(S)/% inhibition 2e-(R) at 5000 nM) was 0.97 and the IC50 ([11]; Yes, error is standard deviation) was 727 nM. For the same compound, the “IC50 of Kinase/IC50 of Yes” value ([12]; Src relative to Yes) was 1.64, the IC50 ([12]; Src, error is standard deviation) was 1190 nM and the “% inhibition” value ([13]; 1000 nM, 1 µM) was 18%. The “% inhibition” value ([13]; 5000 nM, 5 µM) was 54%, the “SIR (5000 nM)” value [13, 20] was 1.86 and the “% inhibition” value ([14]; 1000 nM, 1 µM) was 26%. The “% inhibition” value ([14]; 5000 nM, 5 µM) was 56%, the “SIR (5000 nM)” value [14, 20] was 1.27 and the “% inhibition” value ([15]; 1000 nM, 1 µM) was 26%. For the same compound, the “% inhibition” value ([15]; 5000 nM, 5 µM) was 54%, the “SIR (5000 nM)” value [15, 20] was 1.05 and the “% inhibition” value ([16]; 1000 nM, 1 µM) was 36%. The “% inhibition” value ([16]; 5000 nM, 5 µM) was 75%, the “SIR (5000 nM)” value [16, 20] was 1.31 and the “% inhibition” value ([17]; 1000 nM, 1 µM) was 13%. The “% inhibition” value ([17]; 5000 nM, 5 µM) was 16%, the “SIR (5000 nM)” value [17, 20] was 1.23 and the “% inhibition” value ([18]; 1000 nM, 1 µM) was −7%. For the same compound, the “% inhibition” value ([18]; 5000 nM) was 0%, the “% inhibition” value ([19]; 1000 nM, 1 µM) was 21% and the “% inhibition” value ([19]; 5000 nM, 5 µM) was 47%. The “SIR (5000 nM)” value [19, 20] was 1.46.
